{"source": "PubChem BioAssay (NCI)", "experiment_in_all_cases": "NCI-60 cell line screen, 48 h", "key": {"BT-549 breast": {"test_system": "BT-549 breast"}, "HCC-2998 colon": {"test_system": "HCC-2998 colon"}, "IGROV1 ovarian": {"test_system": "IGROV1 ovarian"}, "LOX IMVI melanoma": {"test_system": "LOX IMVI melanoma"}, "NCI-H460 lung": {"test_system": "NCI-H460 lung"}, "OVCAR-8 ovarian": {"test_system": "OVCAR-8 ovarian"}, "SF-268 CNS": {"test_system": "SF-268 CNS"}, "SK-OV-3 ovarian": {"test_system": "SK-OV-3 ovarian"}, "T-47D breast": {"test_system": "T-47D breast"}, "U251 CNS": {"test_system": "U251 CNS"}}, "note": "Several values for one entry are separate records, joined by “and”; a condition that tells them apart may be missing. Identical values can stand only once.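 Following 48 hours of exposure in 96-well plates, responses at five concentrations were used to interpolate endpoints linearly. GI50 is the concentration that inhibits growth by half. TGI denotes the concentration required for complete inhibition of growth.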", "data": [{"molecule": "CN1c2ccccc2S(=O)(=O)n2c(COc3ccccc3)nnc21", "values": [{"measurement": "TGI", "setting": "BT-549 breast", "value": "> 100", "unit": "µM"}, {"measurement": "TGI", "setting": "HCC-2998 colon", "value": "> 100", "unit": "µM"}, {"measurement": "TGI", "setting": "IGROV1 ovarian", "value": "> 100", "unit": "µM"}, {"measurement": "TGI", "setting": "LOX IMVI melanoma", "value": "> 100", "unit": "µM"}, {"measurement": "TGI", "setting": "NCI-H460 lung", "value": "> 100", "unit": "µM"}, {"measurement": "TGI", "setting": "OVCAR-8 ovarian", "value": "> 100", "unit": "µM"}, {"measurement": "TGI", "setting": "SF-268 CNS", "value": "> 100", "unit": "µM"}, {"measurement": "TGI", "setting": "SK-OV-3 ovarian", "value": "> 100", "unit": "µM"}, {"measurement": "TGI", "setting": "T-47D breast", "value": "> 100", "unit": "µM"}, {"measurement": "TGI", "setting": "U251 CNS", "value": "> 100", "unit": "µM"}]}, {"molecule": "O=C(Nc1ccc(Cl)cc1)c1cc2ccccc2cc1OP(=O)(O)O", "values": [{"measurement": "GI50", "setting": "BT-549 breast", "value": 2.89, "unit": "µM"}, {"measurement": "TGI", "setting": "BT-549 breast", "value": 9.24, "unit": "µM"}, {"measurement": "GI50", "setting": "HCC-2998 colon", "value": 4.19, "unit": "µM"}, {"measurement": "TGI", "setting": "HCC-2998 colon", "value": 29.9, "unit": "µM"}, {"measurement": "GI50", "setting": "IGROV1 ovarian", "value": 3.81, "unit": "µM"}, {"measurement": "TGI", "setting": "IGROV1 ovarian", "value": 95.2, "unit": "µM"}, {"measurement": "GI50", "setting": "LOX IMVI melanoma", "value": 3.52, "unit": "µM"}, {"measurement": "TGI", "setting": "LOX IMVI melanoma", "value": 17.5, "unit": "µM"}, {"measurement": "GI50", "setting": "NCI-H460 lung", "value": 3.43, "unit": "µM"}, {"measurement": "TGI", "setting": "NCI-H460 lung", "value": 16.8, "unit": "µM"}, {"measurement": "GI50", "setting": "OVCAR-8 ovarian", "value": 4.73, "unit": "µM"}, {"measurement": "TGI", "setting": "OVCAR-8 ovarian", "value": "> 100", "unit": "µM"}, {"measurement": "GI50", "setting": "SF-268 CNS", "value": 3.9, "unit": "µM"}, {"measurement": "TGI", "setting": "SF-268 CNS", "value": 40, "unit": "µM"}, {"measurement": "GI50", "setting": "SK-OV-3 ovarian", "value": 2.51, "unit": "µM"}, {"measurement": "TGI", "setting": "SK-OV-3 ovarian", "value": 16.9, "unit": "µM"}, {"measurement": "GI50", "setting": "T-47D breast", "value": 3.98, "unit": "µM"}, {"measurement": "TGI", "setting": "T-47D breast", "value": 35.2, "unit": "µM"}, {"measurement": "GI50", "setting": "U251 CNS", "value": 3.74, "unit": "µM"}, {"measurement": "TGI", "setting": "U251 CNS", "value": 21.3, "unit": "µM"}]}, {"molecule": "CCC1OC(=O)CC(O)C(C)C(OC2OC(C)CC(N(C)C)C2O)C(CC=O)CC(C)C(=O)/C=C/C2(C)OC2C1C", "note": "(centres undefined)", "values": [{"measurement": "TGI", "setting": "BT-549 breast", "value": 31.8, "unit": "µM"}, {"measurement": "TGI", "setting": "HCC-2998 colon", "value": "> 100", "unit": "µM"}, {"measurement": "TGI", "setting": "IGROV1 ovarian", "value": 25.4, "unit": "µM"}, {"measurement": "TGI", "setting": "LOX IMVI melanoma", "value": 48, "unit": "µM"}, {"measurement": "TGI", "setting": "NCI-H460 lung", "value": "> 100", "unit": "µM"}, {"measurement": "TGI", "setting": "OVCAR-8 ovarian", "value": 68.5, "unit": "µM"}, {"measurement": "TGI", "setting": "SF-268 CNS", "value": 76.3, "unit": "µM"}, {"measurement": "TGI", "setting": "SK-OV-3 ovarian", "value": 78.9, "unit": "µM"}, {"measurement": "TGI", "setting": "T-47D breast", "value": 48.6, "unit": "µM"}, {"measurement": "TGI", "setting": "U251 CNS", "value": 30.8, "unit": "µM"}]}, {"molecule": "COC1C(C)OC(OC2CC(C)(O)Cc3cc4c(c(O)c32)C(=O)c2c(O)cc3c(c2C4=O)OC2OC3(C)C(O)C(N(C)C)C2O)C(OC)C1(C)OC", "note": "(centres undefined)", "values": [{"measurement": "TGI", "setting": "BT-549 breast", "value": 0.00655, "unit": "µM"}, {"measurement": "GI50", "setting": "HCC-2998 colon", "value": 0.0393, "unit": "µM"}, {"measurement": "TGI", "setting": "HCC-2998 colon", "value": "0.447 µM and 0.178 µM"}, {"measurement": "TGI", "setting": "IGROV1 ovarian", "value": "3.47 µM and 5.05 µM"}, {"measurement": "GI50", "setting": "LOX IMVI melanoma", "value": "0.0226 µM and 0.0661 µM"}, {"measurement": "GI50", "setting": "NCI-H460 lung", "value": "0.0303 µM and 0.0155 µM"}, {"measurement": "TGI", "setting": "NCI-H460 lung", "value": "1.86 µM and 0.233 µM"}, {"measurement": "GI50", "setting": "OVCAR-8 ovarian", "value": "0.0416 µM and 0.0176 µM"}, {"measurement": "TGI", "setting": "OVCAR-8 ovarian", "value": "2.79 µM and 1.37 µM"}, {"measurement": "GI50", "setting": "SF-268 CNS", "value": "0.0512 µM and 0.0161 µM"}, {"measurement": "TGI", "setting": "SF-268 CNS", "value": "1.81 µM and 1.03 µM"}, {"measurement": "TGI", "setting": "SK-OV-3 ovarian", "value": "1.52 µM and 10.7 µM"}, {"measurement": "TGI", "setting": "T-47D breast", "value": 0.000313, "unit": "µM"}, {"measurement": "GI50", "setting": "U251 CNS", "value": "0.0459 µM and 0.016 µM"}]}]}
